Test results: US20240391882A1 (Mirati Therapeutics, Inc., priority 2023, published 2024)

Columns and labels:
Format in all cases: cell-based
[1] = test system: SKBR3 (PI3Kα wild type) cells; assay: Cell viability (CellTiter-Glo 2.0) in SKBR3 cells; conditions: Homo sapiens, SK-BR-3; SKBR3 (PI3Kα wild type) cells, approximately 72 hours, CellTiter-Glo 2.0; read-out: SKBR3 (WT) Viability IC50
Procedure, shortened: (§1)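 SKBR3 or T47D cells, 1000 per well, were seeded overnight and then exposed ~72 h at 37° C to 10 concentrations of compound, 1:4 dilutions from 10 μm. Viability read by CellTiter-Glo luminescence as percent of vehicle; IC50 from four-parameter variable-slope fit.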

[2] = test system: T47D (PI3Kα H1047R mutant) cells; assay: Cell viability (CellTiter-Glo 2.0) in T47D cells; conditions: Homo sapiens, T47D, 72 h, approximately 72 hours
Procedure, shortened: as §1

[3] = test system: pAKT in T47D (PI3Kα H1047R mutant) cells; assay: Inhibition of pAKT (alphaLISA Surefire Ultra AKT 1/2/3 pS473) in T47D cells; conditions: Homo sapiens; T47D (PI3Kα H1047R mutant) cells, 24 hr compound incubation, alphaLISA pS473; read-out: T47D (H1047R) pAKT 24 hr (IC50)
Procedure, shortened: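 Cells in HBSS were dosed from 10.4 μm (1:4 serial dilution, 10 concentrations) and incubated about 24 hours at 37° C, then lysed. pAKT S473 measured by alphaLISA after overnight bead incubation. Signal normalised to alpelisib (3.125 μm) and DMSO controls; IC50 from four-parameter fit.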

| Compound | IC50 [1] | IC50 [2] | IC50 [3] |
| --- | --- | --- | --- |
| Cc1cc([C@@H](C)Nc2cccnc2C(=O)O)c2nc(N3CCC(F)(F)C3)c(C#N)nc2c1 [Example 204, (R)-3-((1-(2-cyano-3-(3,3-difluoropyrrolidin-1-yl)-7-methylquinoxalin-5-yl)ethyl)amino)picolinic acid] | 1850 nM | 393 nM | 58.1 nM |
| COC[C@H]1[C@H]2CN(c3nc4c([C@@H](C)Nc5ccc(Cl)nc5C(=O)O)cc(C)cc4nc3C#N)C[C@@H]12 [Example 213, 6-chloro-3-(((R)-1-(2-cyano-3-((1R,5S,6S)-6-(methoxymethyl)-3-azabicyclo[3.1.0]hexan-3-yl)-7-methylquinoxalin-5-yl)ethyl)amino)picolinic acid] | 9550 nM | 61 nM | 0.91 nM |
| Cc1cc([C@@H](C)Nc2ccc(Cl)nc2C(=O)O)c2nc(N3CC4C(F)C4C3)c(C#N)nc2c1 (stereo partly drawn) [Example 215, 6-chloro-3-(((1R)-1-(2-cyano-3-(6-fluoro-3-azabicyclo[3.1.0]hexan-3-yl)-7-methylquinoxalin-5-yl)ethyl)amino)picolinic acid] | > 10000 nM | 28 nM | 1.6 nM |
| Cc1cc([C@@H](C)Nc2ccc(Cl)nc2C(=O)O)c2nc(N3CCc4cnccc4C3)c(C#N)nc2c1 [Example 216, (R)-6-chloro-3-((1-(2-cyano-3-(3,4-dihydro-2,6-naphthyridin-2(1H)-yl)-7-methylquinoxalin-5-yl)ethyl)amino)picolinic acid] | > 10000 nM | 48 nM | 0.45 nM |
| Cc1cc([C@@H](C)Nc2ccc(Cl)nc2C(=O)O)c2nc(N3CCc4ccc(C#N)cc4C3)c(C#N)nc2c1 [Example 217, (R)-6-chloro-3-((1-(2-cyano-3-(7-cyano-3,4-dihydroisoquinolin-2(1H)-yl)-7-methylquinoxalin-5-yl)ethyl)amino)picolinic acid] | > 10000 nM | 64 nM | 0.69 nM |
| Cc1cc([C@@H](C)Nc2ccc(Cl)nc2C(=O)O)c2nc(N3CCc4c(ccn(C)c4=O)C3)c(C#N)nc2c1 [Example 221, (R)-6-chloro-3-((1-(2-cyano-7-methyl-3-(6-methyl-5-oxo-3,4,5,6-tetrahydro-2,6-naphthyridin-2(1H)-yl)quinoxalin-5-yl)ethyl)amino)picolinic acid] | > 10000 nM | 147 nM | 0.88 nM |
| Cc1cc([C@@H](C)Nc2ccc(Cl)nc2C(=O)O)c2nc(N3CCc4ccn(C)c(=O)c4C3)c(C#N)nc2c1 [Example 222, (R)-6-chloro-3-((1-(2-cyano-7-methyl-3-(7-methyl-8-oxo-3,4,7,8-tetrahydro-2,7-naphthyridin-2(1H)-yl)quinoxalin-5-yl)ethyl)amino)picolinic acid] | > 10000 nM | 225 nM | 4.2 nM |
| Cc1cc([C@@H](C)Nc2ccc(Cl)nc2C(=O)O)c2nc(-c3ccc(=O)n(C)c3)c(C#N)nc2c1 [Example 223, (R)-6-chloro-3-((1-(2-cyano-7-methyl-3-(1-methyl-6-oxo-1,6-dihydropyridin-3-yl)quinoxalin-5-yl)ethyl)amino)picolinic acid] | > 10000 nM | 1030 nM | 20 nM |
| Cc1cc([C@@H](C)Nc2ccc(Cl)nc2C(=O)O)c2nc(N3CC4CS(=O)(=O)CC4C3)c(C#N)nc2c1 (stereo partly drawn) [Example 228, 6-chloro-3-(((1R)-1-(2-cyano-3-(2,2-dioxidotetrahydro-1H-thieno[3,4-c]pyrrol-5(3H)-yl)-7-methylquinoxalin-5-yl)ethyl)amino)picolinic acid] | > 10000 nM | 368 nM | 33.2 nM |
| C[C@@H](Nc1ccc(Cl)nc1C(=O)O)c1cc(C(F)F)cc2nc(C#N)c(N3CCOCC3)nc12 [Example 231, (R)-6-chloro-3-((1-(2-cyano-7-(difluoromethyl)-3-morpholinoquinoxalin-5-yl)ethyl)amino)picolinic acid] | > 10000 nM | 25.8 nM | 1.3 nM |
| Cc1cc([C@@H](C)Nc2ccc(Cl)nc2C(=O)O)c2nc(C3CCOCC3)c(C#N)nc2c1 [Example 233, (R)-6-chloro-3-((1-(2-cyano-7-methyl-3-(tetrahydro-2H-pyran-4-yl)quinoxalin-5-yl)ethyl)amino)picolinic acid] | > 10000 nM | 84.4 nM | 0.17 nM |
| Cc1cc([C@@H](C)Nc2ccc(Cl)nc2C(=O)O)c2nc(N3CCO[C@H](CO)C3)c(C#N)nc2c1 [Example 235A, 6-chloro-3-(((R)-1-(2-cyano-3-((S)-2-(hydroxymethyl)morpholino)-7-methylquinoxalin-5-yl)ethyl)amino)picolinic acid] | > 10000 nM | 183 nM | 2 nM |
| Cc1cc([C@@H](C)Nc2ccc(Cl)nc2C(=O)O)c2nc(N3CCO[C@@H](CO)C3)c(C#N)nc2c1 [Example 235B, 6-chloro-3-(((R)-1-(2-cyano-3-((R)-2-(hydroxymethyl)morpholino)-7-methylquinoxalin-5-yl)ethyl)amino)picolinic acid] | > 10000 nM | 262 nM | 1.8 nM |
| COC[C@@H]1CN(c2nc3c([C@@H](C)Nc4ccc(Cl)nc4C(=O)O)cc(C)cc3nc2C#N)CCO1 [Example 236A, 6-chloro-3-(((R)-1-(2-cyano-3-((S)-2-(methoxymethyl)morpholino)-7-methylquinoxalin-5-yl)ethyl)amino)picolinic acid] | > 10000 nM | 52.8 nM | 0.89 nM |
| COC[C@H]1CN(c2nc3c([C@@H](C)Nc4ccc(Cl)nc4C(=O)O)cc(C)cc3nc2C#N)CCO1 [Example 236B, 6-chloro-3-(((R)-1-(2-cyano-3-((R)-2-(methoxymethyl)morpholino)-7-methylquinoxalin-5-yl)ethyl)amino)picolinic acid] | > 10000 nM | 217 nM | 3.6 nM |
| Cc1cc([C@@H](C)Nc2ccc(Cl)nc2C(=O)O)c2nc(N3CCC4(COC4)C3)c(C#N)nc2c1 [Example 240, (R)-6-chloro-3-((1-(2-cyano-7-methyl-3-(2-oxa-6-azaspiro[3.4]octan-6-yl)quinoxalin-5-yl)ethyl)amino)picolinic acid] | 7990 nM | 16 nM | 1.6 nM |
| Cc1cc([C@@H](C)Nc2ccc(Cl)nc2C(=O)O)c2nc(N3CCCOCC3)c(C#N)nc2c1 [Example 242, (R)-6-chloro-3-((1-(2-cyano-7-methyl-3-(1,4-oxazepan-4-yl)quinoxalin-5-yl)ethyl)amino)picolinic acid] | 8260 nM | 35 nM | 0.28 nM |
| Cc1cc([C@@H](C)Nc2ccc(Cl)nc2C(=O)O)c2nc(N3C[C@@H](F)[C@@H](C)C3)c(C#N)nc2c1 [Example 245, 6-chloro-3-(((R)-1-(2-cyano-3-((3S,4S)-3-fluoro-4-methylpyrrolidin-1-yl)-7-methylquinoxalin-5-yl)ethyl)amino)picolinic acid] | 5510 nM | 63 nM | 1.1 nM |

Next, values leading:

| IC50 [1] | IC50 [2] | IC50 [3] | Compound |
| --- | --- | --- | --- |
| 8170 nM | 137 nM | 4.3 nM | Cc1cc([C@@H](C)Nc2ccc(Cl)nc2C(=O)O)c2nc(N3C[C@@H](C)OC[C@H]3C)c(C#N)nc2c1 [Example 237A, 6-chloro-3-(((R)-1-(2-cyano-3-((2R,5R)-2,5-dimethylmorpholino)-7-methylquinoxalin-5-yl)ethyl)amino)picolinic acid] |
| 3800 nM | 152 nM | 6.1 nM | Cc1cc([C@@H](C)Nc2ccc(Cl)nc2C(=O)O)c2nc(N3C[C@H](C)OC[C@@H]3C)c(C#N)nc2c1 [Example 237B, 6-chloro-3-(((R)-1-(2-cyano-3-((2S,5S)-2,5-dimethylmorpholino)-7-methylquinoxalin-5-yl)ethyl)amino)picolinic acid] |
| > 10000 nM | 216 nM | 10.4 nM | Cc1cc([C@@H](C)Nc2ccc(Cl)nc2C(=O)O)c2nc(N3C[C@H](C)OC[C@H]3C)c(C#N)nc2c1 [Example 238A, 6-chloro-3-(((R)-1-(2-cyano-3-((2S,5R)-2,5-dimethylmorpholino)-7-methylquinoxalin-5-yl)ethyl)amino)picolinic acid] |
| > 10000 nM | 117 nM | 3.5 nM | Cc1cc([C@@H](C)Nc2ccc(Cl)nc2C(=O)O)c2nc(N3C[C@@H](C)OC[C@@H]3C)c(C#N)nc2c1 [Example 238B, 6-chloro-3-(((R)-1-(2-cyano-3-((2R,5S)-2,5-dimethylmorpholino)-7-methylquinoxalin-5-yl)ethyl)amino)picolinic acid] |
| > 10000 nM | 35 nM | 0.69 nM | Cc1cc([C@@H](C)Nc2ccc(Cl)nc2C(=O)O)c2nc(N3C[C@@H](F)C[C@H]3C)c(C#N)nc2c1 [Example 246A, 6-chloro-3-(((R)-1-(2-cyano-3-((2R,4S)-4-fluoro-2-methylpyrrolidin-1-yl)-7-methylquinoxalin-5-yl)ethyl)amino)picolinic acid] |
| 4920 nM | 61 nM | 1.8 nM | Cc1cc([C@@H](C)Nc2ccc(Cl)nc2C(=O)O)c2nc(N3C[C@H](F)C[C@@H]3C)c(C#N)nc2c1 [Example 246B, 6-chloro-3-(((R)-1-(2-cyano-3-((2S,4R)-4-fluoro-2-methylpyrrolidin-1-yl)-7-methylquinoxalin-5-yl)ethyl)amino)picolinic acid] |
